# According to PubChem BioAssay AID1963839 (Molecular Pharmacology Branch, DTP, NCI, 2024):
# Tested on: 817829-284-R-J1-PDC complex spheroid viability
# Test: Anticancer human tumor 817829-284-R-J1-PDC patient-derived colon adenocarcinoma cell line growth inhibition [POLQ]
# Conditions: for IC50: curve of first compound; for viability, T/C: stronger effect = lower value
# Method in brief: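 Patient-derived tumour cells were co-cultured with HUVEC and mesenchymal stem cells as multicellular spheroids at 37 °C. They were treated with POLQ inhibitors (novobiocin, ART-558, RP6685) alone or combined with other agents. Top concentrations were at or near clinical Cmax (otherwise 10 microM; SN-38 at 1 microM), decreasing in half-log steps.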
# [1] = second compound 0.0316 µM, first compound 0.0316 µM
# [2] = second compound 0.0316 µM, first compound 0.1 µM
# [3] = second compound 0.0316 µM, first compound 0.316 µM
# [4] = second compound 0.0316 µM, first compound 1 µM
# [5] = second compound 0.0316 µM, first compound 3.16 µM
# [6] = second compound 0.0316 µM, first compound 10 µM
# [7] = second compound 0.1 µM, first compound 0.0316 µM
# [8] = second compound 0.1 µM, first compound 0.1 µM
# [9] = second compound 0.1 µM, first compound 0.316 µM
# [10] = second compound 0.1 µM, first compound 1 µM
# [11] = second compound 0.1 µM, first compound 3.16 µM
# [12] = second compound 0.1 µM, first compound 10 µM
# [13] = second compound 0.316 µM, first compound 0.0316 µM
# [14] = second compound 0.316 µM, first compound 0.1 µM
# [15] = second compound 0.316 µM, first compound 0.316 µM
# [16] = second compound 0.316 µM, first compound 1 µM
# [17] = second compound 0.316 µM, first compound 3.16 µM
# [18] = second compound 0.316 µM, first compound 10 µM
# [19] = second compound 1 µM, first compound 0.0316 µM
# [20] = second compound 1 µM, first compound 0.1 µM
# [21] = second compound 1 µM, first compound 0.316 µM
# [22] = second compound 1 µM, first compound 1 µM
# [23] = second compound 1 µM, first compound 3.16 µM
# [24] = second compound 1 µM, first compound 10 µM
# [25] = second compound 3.16 µM, first compound 0.0316 µM
# [26] = second compound 3.16 µM, first compound 0.1 µM
# [27] = second compound 3.16 µM, first compound 0.316 µM
# [28] = second compound 3.16 µM, first compound 1 µM
# [29] = second compound 3.16 µM, first compound 3.16 µM
# [30] = second compound 3.16 µM, first compound 10 µM
# [31] = second compound 10 µM, first compound 0.0316 µM
# [32] = second compound 10 µM, first compound 0.1 µM
# [33] = second compound 10 µM, first compound 0.316 µM
# [34] = second compound 10 µM, first compound 1 µM
# [35] = second compound 10 µM, first compound 3.16 µM
# [36] = second compound 10 µM, first compound 10 µM
# 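Also: spheroids exposed to compounds for 7 days.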
# 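For viability, T/C in this document: 100% = DMSO vehicle-treated spheroids.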
smiles,measurement,setting,value
CC1COCCN1c1cc(C2(S(C)(=N)=O)CC2)nc(-c2ccnc3[nH]ccc23)n1 (stereo unspecified) + COC1C(OC(N)=O)C(O)C(Oc2ccc3c(O)c(NC(=O)c4ccc(O)c(CC=C(C)C)c4)c(=O)oc3c2C)OC1(C)C,IC50,second compound 0.0316 µM,338 nM
same,IC50,second compound 0.1 µM,422 nM
same,IC50,second compound 0.316 µM,363 nM
same,IC50,second compound 1 µM,440 nM
same,IC50,second compound 3.16 µM,169 nM
same,IC50,second compound 10 µM,241 nM
same,"viability, T/C",[1],85.6%
same,"viability, T/C",[2],74.6%
same,"viability, T/C",[3],53.1%
same,"viability, T/C",[4],19.9%
same,"viability, T/C",[5],6.56%
same,"viability, T/C",[6],4.6%
same,"viability, T/C",[7],98.5%
same,"viability, T/C",[8],105%
same,"viability, T/C",[9],58.7%
same,"viability, T/C",[10],19.9%
same,"viability, T/C",[11],7.9%
same,"viability, T/C",[12],4.68%
same,"viability, T/C",[13],92.7%
same,"viability, T/C",[14],76.3%
same,"viability, T/C",[15],56.8%
same,"viability, T/C",[16],21%
same,"viability, T/C",[17],6.66%
same,"viability, T/C",[18],4.27%
same,"viability, T/C",[19],94.5%
same,"viability, T/C",[20],110%
same,"viability, T/C",[21],59.2%
same,"viability, T/C",[22],23.4%
same,"viability, T/C",[23],9.79%
same,"viability, T/C",[24],4.86%
same,"viability, T/C",[25],89.9%
same,"viability, T/C",[26],60.2%
same,"viability, T/C",[27],37.9%
same,"viability, T/C",[28],20.8%
same,"viability, T/C",[29],8.42%
same,"viability, T/C",[30],4.19%
same,"viability, T/C",[31],111%
same,"viability, T/C",[32],63.3%
same,"viability, T/C",[33],51.7%
same,"viability, T/C",[34],24.6%
same,"viability, T/C",[35],9.19%
same,"viability, T/C",[36],4.6%
C=CCn1c(=O)c2cnc(Nc3ccc(N4CCN(C)CC4)cc3)nc2n1-c1cccc(C(C)(C)O)n1 + Nc1ccc(C#CCN(C(=O)Cc2ncc(C(F)(F)F)cc2C(F)(F)F)c2ccc(F)cc2)nn1,IC50,second compound 0.0316 µM,258 nM
same,IC50,second compound 0.1 µM,219 nM
same,IC50,second compound 0.316 µM,214 nM
same,IC50,second compound 1 µM,259 nM
same,IC50,second compound 3.16 µM,198 nM
same,IC50,second compound 10 µM,236 nM
same,"viability, T/C","second compound 0.0316 µM, first compound 0.00316 µM",90.9%
same,"viability, T/C","second compound 0.0316 µM, first compound 0.01 µM",118%
same,"viability, T/C",[1],97.2%
same,"viability, T/C",[2],72.6%
same,"viability, T/C",[3],47%
same,"viability, T/C",[4],5.79%
same,"viability, T/C","second compound 0.1 µM, first compound 0.00316 µM",103%
same,"viability, T/C","second compound 0.1 µM, first compound 0.01 µM",103%
same,"viability, T/C",[7],83.6%
same,"viability, T/C",[8],79.9%
same,"viability, T/C",[9],36%
same,"viability, T/C",[10],6.74%
same,"viability, T/C","second compound 0.316 µM, first compound 0.00316 µM",90.6%
same,"viability, T/C","second compound 0.316 µM, first compound 0.01 µM",113%
same,"viability, T/C",[13],87.8%
same,"viability, T/C",[14],78%
same,"viability, T/C",[15],36.1%
same,"viability, T/C",[16],5.29%
same,"viability, T/C","second compound 1 µM, first compound 0.00316 µM",110%
same,"viability, T/C","second compound 1 µM, first compound 0.01 µM",115%
same,"viability, T/C",[19],85.5%
same,"viability, T/C",[20],82.4%
same,"viability, T/C",[21],42.2%
same,"viability, T/C",[22],5.43%
same,"viability, T/C","second compound 3.16 µM, first compound 0.00316 µM",93.7%
same,"viability, T/C","second compound 3.16 µM, first compound 0.01 µM",82.2%
same,"viability, T/C",[25],100%
same,"viability, T/C",[26],75.2%
same,"viability, T/C",[27],31.8%
same,"viability, T/C",[28],5.58%
same,"viability, T/C","second compound 10 µM, first compound 0.00316 µM",90.7%
same,"viability, T/C","second compound 10 µM, first compound 0.01 µM",105%
same,"viability, T/C",[31],89.7%
same,"viability, T/C",[32],80.7%
same,"viability, T/C",[33],39.7%
same,"viability, T/C",[34],5.43%
C=CC(=O)N1CCN(c2nc(=O)n(-c3c(C)ccnc3C(C)C)c3nc(-c4c(O)cccc4F)c(F)cc23)C(C)C1 (stereo unspecified) + Nc1ccc(C#CCN(C(=O)Cc2ncc(C(F)(F)F)cc2C(F)(F)F)c2ccc(F)cc2)nn1,IC50,second compound 0.0316 µM,> 10000 nM
same,IC50,second compound 0.1 µM,> 10000 nM
same,IC50,second compound 0.316 µM,> 10000 nM
same,IC50,second compound 1 µM,> 10000 nM
same,IC50,second compound 3.16 µM,9670 nM
same,IC50,second compound 10 µM,> 10000 nM
same,"viability, T/C",[1],77.4%
same,"viability, T/C",[2],103%
same,"viability, T/C",[3],97.2%
same,"viability, T/C",[4],93.5%
same,"viability, T/C",[5],91.7%
same,"viability, T/C",[6],51.3%
same,"viability, T/C",[7],95%
same,"viability, T/C",[8],110%
same,"viability, T/C",[9],101%
same,"viability, T/C",[10],99.8%
same,"viability, T/C",[11],84.2%
same,"viability, T/C",[12],60.5%
same,"viability, T/C",[13],104%
same,"viability, T/C",[14],91.3%
same,"viability, T/C",[15],96.6%
same,"viability, T/C",[16],98%
same,"viability, T/C",[17],93.5%
same,"viability, T/C",[18],61.6%
same,"viability, T/C",[19],102%
same,"viability, T/C",[20],119%
same,"viability, T/C",[21],112%
same,"viability, T/C",[22],97.8%
same,"viability, T/C",[23],94.5%
same,"viability, T/C",[24],52.9%
same,"viability, T/C",[25],96%
same,"viability, T/C",[26],89%
same,"viability, T/C",[27],102%
same,"viability, T/C",[28],90.8%
same,"viability, T/C",[29],76.2%
same,"viability, T/C",[30],49.2%
same,"viability, T/C",[31],114%
same,"viability, T/C",[32],84.1%
same,"viability, T/C",[33],90.6%
same,"viability, T/C",[34],90%
same,"viability, T/C",[35],79.8%
same,"viability, T/C",[36],51%
